Measurements reported in patent publication US10597388B2, “Pyridazinone herbicides” (FMC CORPORATION, priority 2014, dated 2020).

Experiments:
Assay in all cases: Test D controlled growth environment herbicide test, pre- and postemergence
Assay type in all cases: in vivo
[1] = test system: foxtail, green (green foxtail, Setaria viridis)
Summary of the method: (§1)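 Species sown in silt loam and sprayed preemergence, or grown in peat-based medium to 2–18 cm (1- to 4-leaf stage) and sprayed postemergence, with compounds in non-phytotoxic solvent plus surfactant. Visual injury scored versus controls after 14–21 d in a controlled environment, 0 (no effect) to 100 (complete control).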

[2] = test system: field violet (Viola arvensis)
Summary of the method: as §1

[3] = test system: chickweed (common chickweed, Stellaria media)
Summary of the method: as §1

[4] = test system: blackgrass (Alopecurus myosuroides)
Summary of the method: as §1

[5] = test system: lambsquarters (Chenopodium album)
Summary of the method: as §1

[6] = test system: kochia (Kochia scoparia)
Summary of the method: as §1

[7] = test system: barley, winter (winter barley, Hordeum vulgare)
Summary of the method: as §1

[8] = test system: wheat, winter (winter wheat, Triticum aestivum)
Summary of the method: as §1

[9] = test system: chamomile (scentless chamomile, Matricaria inodora)
Summary of the method: as §1

[10] = test system: pigweed (Amaranthus retroflexus)
Summary of the method: as §1

[11] = test system: bluegrass (annual bluegrass, Poa annua)
Summary of the method: as §1

[12] = test system: galium (catchweed bedstraw, Galium aparine)
Summary of the method: as §1

[13] = test system: bromegrass, downy (downy bromegrass, Bromus tectorum)
Summary of the method: as §1

[14] = Postemergence, 31 g ai/ha, scale 0 to 100 (0 no effect, 100 complete control)
[15] = Postemergence, 125 g ai/ha, visual rating on scale 0 (no effect) to 100 (complete control), 14 to 21 d
[16] = Postemergence, 250 g ai/ha, scale 0 to 100 (0 no effect, 100 complete control)
[17] = postemergence, 62 g ai/ha, scale 0 to 100, 0 no effect, 100 complete control
[18] = Preemergence, 62 g ai/ha, scale 0 to 100 (0 no effect, 100 complete control)
[19] = Preemergence, 125 g ai/ha, scale 0 to 100 (0 no effect, 100 complete control)
[20] = Preemergence, 250 g ai/ha, scale 0 to 100, 0 no effect, 100 complete control

Structure (SMILES): Cc1cc(C)c2ccccc2c1-c1c(O)c(C)nn(C)c1=O [Compound 21]
- Foxtail, Green plant response rating [1, 14]: 70
- Plant response rating, Foxtail, Green [1, 15]: 85
- Plant response rating, Foxtail, Green [1, 16]: 95
- Plant response rating, Foxtail, Green [1, 17]: 80
- Field Violet plant response rating [2, 14]: 95
- Plant response rating, Field Violet [2, 15]: 100
- Plant response rating, Field Violet [2, 16]: 100
- Plant response rating, Field Violet [2, 17]: 95
- Chickweed plant response rating [3, 14]: 90
- Plant response rating, Chickweed [3, 15]: 100
- Plant response rating, Chickweed [3, 16]: 100
- Plant response rating, Chickweed [3, 17]: 100
- Blackgrass plant response rating [4, 14]: 80
- Plant response rating, Blackgrass [4, 15]: 85
- Plant response rating, Blackgrass [4, 16]: 90
- Plant response rating, Blackgrass [4, 17]: 85
- Lambsquarters plant response rating [5, 14]: 80
- Plant response rating, Lambsquarters [5, 15]: 90
- Plant response rating, Lambsquarters [5, 16]: 95
- Plant response rating, Lambsquarters [5, 17]: 85
- Kochia plant response rating [6, 14]: 35
- Plant response rating, Kochia [6, 15]: 75
- Plant response rating, Kochia [6, 16]: 85
- Plant response rating, Kochia [6, 17]: 45
- Plant response rating, Barley, Winter [7, 14]: 0
- Plant response rating, Barley, Winter [7, 15]: 30
- Plant response rating, Barley, Winter [7, 16]: 40
- Plant response rating, Barley, Winter [7, 17]: 10
- Wheat, Winter plant response rating [8, 14]: 20
- Plant response rating, Wheat, Winter [8, 15]: 35
- Plant response rating, Wheat, Winter [8, 16]: 40
- Plant response rating, Wheat, Winter [8, 17]: 25
- Chamomile plant response rating [9, 14]: 90
- Plant response rating, Chamomile [9, 15]: 100
- Plant response rating, Chamomile [9, 16]: 100
- Plant response rating, Chamomile [9, 17]: 95
- Pigweed plant response rating [10, 14]: 80
- Plant response rating, Pigweed [10, 15]: 90
- Plant response rating, Pigweed [10, 16]: 98
- Plant response rating, Pigweed [10, 17]: 85
- Bluegrass plant response rating [11, 14]: 20
- Plant response rating, Bluegrass [11, 15]: 35
- Plant response rating, Bluegrass [11, 16]: 50
- Plant response rating, Bluegrass [11, 17]: 30
- Galium plant response rating [12, 14]: 100
- Plant response rating, Galium [12, 15]: 100
- Plant response rating, Galium [12, 16]: 100
- Plant response rating, Galium [12, 17]: 100
- Bromegrass, Downy plant response rating [13, 14]: 45
- Plant response rating, Bromegrass, Downy [13, 15]: 75
- Plant response rating, Bromegrass, Downy [13, 16]: 80
- Plant response rating, Bromegrass, Downy [13, 17]: 60

Structure (SMILES): Cc1nn(C)c(=O)c(-c2c(C)sc3ccc(Br)cc23)c1O [Compound 22]
- Foxtail, Green plant response rating [1, 14]: 15
- Plant response rating, Foxtail, Green [1, 15]: 70
- Plant response rating, Foxtail, Green [1, 16]: 75
- Plant response rating (scale of 0 to 100), Foxtail, Green ([1]; Preemergence, 31 g ai/ha): 0
- Plant response rating, Foxtail, Green [1, 18]: 0
- Plant response rating, Foxtail, Green [1, 19]: 0
- Plant response rating, Foxtail, Green [1, 20]: 20
- Plant response rating, Foxtail, Green [1, 17]: 45
- Field Violet plant response rating [2, 14]: 70
- Plant response rating, Field Violet [2, 15]: 75
- Plant response rating, Field Violet [2, 16]: 95
- Plant response rating (scale of 0 to 100), Field Violet ([2]; Preemergence, 31 g ai/ha): 20
- Plant response rating, Field Violet [2, 18]: 65
- Plant response rating, Field Violet [2, 19]: 80
- Plant response rating, Field Violet [2, 20]: 100
- Plant response rating, Field Violet [2, 17]: 70
- Chickweed plant response rating [3, 14]: 85
- Plant response rating, Chickweed [3, 15]: 98
- Plant response rating, Chickweed [3, 16]: 100
- Plant response rating (scale of 0 to 100), Chickweed ([3]; Preemergence, 31 g ai/ha): 95
- Plant response rating, Chickweed [3, 18]: 100
- Plant response rating, Chickweed [3, 19]: 100
- Plant response rating, Chickweed [3, 20]: 100
- Plant response rating, Chickweed [3, 17]: 95
- Blackgrass plant response rating [4, 14]: 15
- Plant response rating, Blackgrass [4, 15]: 45
- Plant response rating, Blackgrass [4, 16]: 70
- Plant response rating (scale of 0 to 100), Blackgrass ([4]; Preemergence, 31 g ai/ha): 45
- Plant response rating, Blackgrass [4, 18]: 45
- Plant response rating, Blackgrass [4, 19]: 55
- Blackgrass plant response rating [4, 20]: 75
- Plant response rating, Blackgrass [4, 17]: 20
- Lambsquarters plant response rating [5, 14]: 80
- Plant response rating, Lambsquarters [5, 15]: 95
- Plant response rating, Lambsquarters [5, 16]: 98
- Plant response rating (scale of 0 to 100), Lambsquarters ([5]; Preemergence, 31 g ai/ha): 100
- Plant response rating, Lambsquarters [5, 18]: 100
- Plant response rating, Lambsquarters [5, 19]: 100
- Plant response rating, Lambsquarters [5, 20]: 100
- Plant response rating, Lambsquarters [5, 17]: 85
- Kochia plant response rating [6, 14]: 80
- Plant response rating, Kochia [6, 15]: 100
- Plant response rating, Kochia [6, 16]: 100
- Plant response rating (scale of 0 to 100), Kochia ([6]; Preemergence, 31 g ai/ha): 35
- Plant response rating, Kochia [6, 18]: 35
- Plant response rating, Kochia [6, 19]: 50
- Plant response rating, Kochia [6, 20]: 75
- Plant response rating, Kochia [6, 17]: 95
- Plant response rating, Barley, Winter [7, 14]: 0
- Plant response rating, Barley, Winter [7, 15]: 0
- Plant response rating, Barley, Winter [7, 16]: 5
- Plant response rating (scale of 0 to 100), Barley, Winter ([7]; Preemergence, 31 g ai/ha): 0
- Plant response rating, Barley, Winter [7, 18]: 0
- Plant response rating, Barley, Winter [7, 19]: 0
- Barley, Winter plant response rating [7, 20]: 0
- Plant response rating, Barley, Winter [7, 17]: 0
- Wheat, Winter plant response rating [8, 14]: 5
- Plant response rating, Wheat, Winter [8, 15]: 15
- Plant response rating, Wheat, Winter [8, 16]: 15
- Plant response rating (scale of 0 to 100), Wheat, Winter ([8]; Preemergence, 31 g ai/ha): 0
- Plant response rating, Wheat, Winter [8, 18]: 0
- Plant response rating, Wheat, Winter [8, 19]: 0
- Plant response rating, Wheat, Winter [8, 20]: 5
- Plant response rating, Wheat, Winter [8, 17]: 5
- Chamomile plant response rating [9, 14]: 80
- Plant response rating, Chamomile [9, 15]: 85
- Plant response rating, Chamomile [9, 16]: 100
- Plant response rating (scale of 0 to 100), Chamomile ([9]; Preemergence, 31 g ai/ha): 95
- Plant response rating, Chamomile [9, 18]: 100
- Plant response rating, Chamomile [9, 19]: 100
- Plant response rating, Chamomile [9, 20]: 100
- Plant response rating, Chamomile [9, 17]: 80
- Pigweed plant response rating [10, 14]: 85
- Plant response rating, Pigweed [10, 15]: 98
- Plant response rating, Pigweed [10, 16]: 100
- Plant response rating (scale of 0 to 100), Pigweed ([10]; Preemergence, 31 g ai/ha): 100
- Plant response rating, Pigweed [10, 18]: 98
- Plant response rating, Pigweed [10, 19]: 98
- Plant response rating, Pigweed [10, 20]: 100
- Plant response rating, Pigweed [10, 17]: 95
- Bluegrass plant response rating [11, 14]: 10
- Plant response rating, Bluegrass [11, 15]: 25
- Plant response rating, Bluegrass [11, 16]: 25
- Plant response rating (scale of 0 to 100), Bluegrass ([11]; Preemergence, 31 g ai/ha): 0
- Plant response rating, Bluegrass [11, 18]: 30
- Plant response rating, Bluegrass [11, 19]: 30
- Bluegrass plant response rating [11, 20]: 40
- Plant response rating, Bluegrass [11, 17]: 15
- Galium plant response rating [12, 14]: 90
- Plant response rating, Galium [12, 15]: 98
- Plant response rating, Galium [12, 16]: 98
- Plant response rating (scale of 0 to 100), Galium ([12]; Preemergence, 31 g ai/ha): 10
- Plant response rating, Galium [12, 18]: 65
- Plant response rating, Galium [12, 19]: 75
- Plant response rating, Galium [12, 20]: 85
- Plant response rating, Galium [12, 17]: 90
- Bromegrass, Downy plant response rating [13, 14]: 10
- Plant response rating, Bromegrass, Downy [13, 15]: 25
- Plant response rating, Bromegrass, Downy [13, 16]: 25
- Plant response rating (scale of 0 to 100), Bromegrass, Downy ([13]; Preemergence, 31 g ai/ha): 0
- Plant response rating, Bromegrass, Downy [13, 18]: 5
- Plant response rating, Bromegrass, Downy [13, 19]: 25
- Plant response rating, Bromegrass, Downy [13, 20]: 80
- Plant response rating, Bromegrass, Downy [13, 17]: 10

Structure (SMILES): Cc1ccc2ccccc2c1-c1c(O)c(Br)nn(C)c1=O [Compound 23]
- Plant response rating, Foxtail, Green [1, 15]: 80
- Plant response rating, Foxtail, Green [1, 16]: 90
- Plant response rating, Foxtail, Green [1, 17]: 75
- Plant response rating, Field Violet [2, 15]: 75
- Plant response rating, Field Violet [2, 16]: 75
- Plant response rating, Field Violet [2, 17]: 45
- Plant response rating, Chickweed [3, 15]: 100
- Plant response rating, Chickweed [3, 16]: 100
- Plant response rating, Chickweed [3, 17]: 100
- Plant response rating, Blackgrass [4, 15]: 75
- Plant response rating, Blackgrass [4, 16]: 80
- Plant response rating, Blackgrass [4, 17]: 70
- Plant response rating, Lambsquarters [5, 15]: 75
- Plant response rating, Lambsquarters [5, 16]: 80
- Plant response rating, Lambsquarters [5, 17]: 75
- Plant response rating, Kochia [6, 15]: 75
- Plant response rating, Kochia [6, 16]: 80
- Plant response rating, Kochia [6, 17]: 75
- Plant response rating, Barley, Winter [7, 15]: 25
- Plant response rating, Barley, Winter [7, 16]: 30
- Plant response rating, Barley, Winter [7, 17]: 15
- Plant response rating, Wheat, Winter [8, 15]: 55
- Plant response rating, Wheat, Winter [8, 16]: 70
- Plant response rating, Wheat, Winter [8, 17]: 40
- Plant response rating, Chamomile [9, 15]: 85
- Plant response rating, Chamomile [9, 16]: 100
- Plant response rating, Chamomile [9, 17]: 85
- Plant response rating, Pigweed [10, 15]: 85
- Plant response rating, Pigweed [10, 16]: 100
- Plant response rating, Pigweed [10, 17]: 75
- Plant response rating, Bluegrass [11, 15]: 35
- Plant response rating, Bluegrass [11, 16]: 40
- Plant response rating, Bluegrass [11, 17]: 35
- Plant response rating, Galium [12, 15]: 100
- Plant response rating, Galium [12, 16]: 100
- Plant response rating, Galium [12, 17]: 100
- Plant response rating, Bromegrass, Downy [13, 15]: 60
- Plant response rating, Bromegrass, Downy [13, 16]: 75
- Plant response rating, Bromegrass, Downy [13, 17]: 45
